Columns and labels:
[1] = one week, cited from earlier work
[2] = Solvent rinsing and tape peel testing of coatings (IR/DRIFT); assay type: physicochemical; settings: aerosol in THF, room temperature, no heating
Description: Coupons which had been treated were rinsed several times with deposition solvent and, where appropriate, ethanol and/or water, to remove soluble residues. A piece of tape (e.g., 3M red Scotch™ “650” tape or Scotch Masking Tape #234; 37 oz./in. adhesion to steel) was adhered to the derivatized surface of the solvent washed foil sample and quickly removed. The freshly “peeled” coupon was then analyzed again by DRIFT spectroscopy.
Samples of coupons of aluminum, iron, and titanium, prepared as described above, were treated with an aerosol of n-octadecanephosphonic acid in tetrahydrofuron (THF) at room temperature in the ambient environment. Following the spray application of the acid solution the solvent was allowed to evaporate at ambient temperature and the derivatized surfaces of the coupons were analyzed by FTIR. The surfaces where then washed with THF and analyzed both before and after a peel test using red Scotch™ “650” tape.

[3] = pH 7; cited from earlier work
[4] = Quartz crystal microbalance (QCM) surface coverage / loading of phosphonate coatings on Ti; assay type: physicochemical
Description: The QCM technique allows accurate, gravimetric determination of mass changes on an electrode which is deposited on a piezoelectric quartz crystal. It is, thus, ideal to monitor surface reactions of target metals when they are used as such electrodes: the QCM oscillates at a resonant frequency which is determined by the cut and mass of the crystal, and, just as for a classical oscillator, changes in electrode mass result in changes in crystal resonant frequency. […] Up to three different reference crystals (prepared in different batches) were used as received to calibrate the QCM. […] To ensure that monolayer coverage (at most) occurred on Ti surface, phosphonic acid-based films were subjected to copious rinsing followed by evacuation (≦10^−2 Torr) until a constant crystal frequency was established (within experimental noise levels of ±2 Hz).
Piezoelectric quarts crystals (International Crystal Manufacturers [ICM]; AT-cut, 1000 Å Ti electrodes, 10 MHz, overtone polished, 0.201 in. electrode diameter) were used for film deposition and as references. […] In each experimental run, the fundamental frequency (fo) of an unreacted crystal was measured. […] A new frequency (fc) was then measured. The crystal was then subjected to rinsing followed by evacuation (≦10^−2 Torr) until a constant frequency was measured (±2 Hz), assumed to be a monolayer coverage of the Ti electrodes. […]

[5] = Hydrolytic stability of DANSYL-RGDC labelled diphosphonate SAM by fluorimetry; assay type: physicochemical; settings: after about 96 hours at pH 7.5, cleaved at about pH 12
Description: To further test the stability of diphosphonate SAMs towards aqueous conditions, fluorimetry was employed. Coupons of Ti-mPEG were then exposed to vapor of […] to yield the surface-bound complex. The complex modified coupons were then treated with a solution of 6-maleimidohexanoic acid in THF and were then rinsed thoroughly, and analyzed via IR (vCO≈1705 cm^−1). The coupons were then placed in a solution of N-(5-dimethylamino-1-naphthyl-sulfonyl)-RGDC (DANSYL-RGDC), then rinsed thoroughly, and probed via IR (vpeptide-CO≈1650-1690 cm^−1). The DANSYL group provides a fluorescent “tag” with which to monitor hydrolysis of the surface.
Fluorophore-labeled coupons were immersed in water at about pH 7.5. Fluorescence intensity of the supernatant was measured over about 90 hours; a calibration curve of DANSYL-RGDC was also prepared to relate concentrations in solution with fluorescence intensity, according to Beer's Law. […] Fluorescence intensity in the supernatant was measured against a second calibration curve of DANSYL-RGDC at about pH 12, and the solution concentration was determined by Beer's Law. […] At this point, the DANSYL-RGDC remaining on the surface was measured by exposing the coupon to strong alkaline (about pH 12) for about 3 hours to cleave any remaining zirconium complex species from the SAM. […]

αvβ3 integrins = αvβ3 integrins (Homo sapiens, UniProt P05106+P06756); settings: cited from earlier work
Chain of αvβ3 integrins (P06756 31-1048): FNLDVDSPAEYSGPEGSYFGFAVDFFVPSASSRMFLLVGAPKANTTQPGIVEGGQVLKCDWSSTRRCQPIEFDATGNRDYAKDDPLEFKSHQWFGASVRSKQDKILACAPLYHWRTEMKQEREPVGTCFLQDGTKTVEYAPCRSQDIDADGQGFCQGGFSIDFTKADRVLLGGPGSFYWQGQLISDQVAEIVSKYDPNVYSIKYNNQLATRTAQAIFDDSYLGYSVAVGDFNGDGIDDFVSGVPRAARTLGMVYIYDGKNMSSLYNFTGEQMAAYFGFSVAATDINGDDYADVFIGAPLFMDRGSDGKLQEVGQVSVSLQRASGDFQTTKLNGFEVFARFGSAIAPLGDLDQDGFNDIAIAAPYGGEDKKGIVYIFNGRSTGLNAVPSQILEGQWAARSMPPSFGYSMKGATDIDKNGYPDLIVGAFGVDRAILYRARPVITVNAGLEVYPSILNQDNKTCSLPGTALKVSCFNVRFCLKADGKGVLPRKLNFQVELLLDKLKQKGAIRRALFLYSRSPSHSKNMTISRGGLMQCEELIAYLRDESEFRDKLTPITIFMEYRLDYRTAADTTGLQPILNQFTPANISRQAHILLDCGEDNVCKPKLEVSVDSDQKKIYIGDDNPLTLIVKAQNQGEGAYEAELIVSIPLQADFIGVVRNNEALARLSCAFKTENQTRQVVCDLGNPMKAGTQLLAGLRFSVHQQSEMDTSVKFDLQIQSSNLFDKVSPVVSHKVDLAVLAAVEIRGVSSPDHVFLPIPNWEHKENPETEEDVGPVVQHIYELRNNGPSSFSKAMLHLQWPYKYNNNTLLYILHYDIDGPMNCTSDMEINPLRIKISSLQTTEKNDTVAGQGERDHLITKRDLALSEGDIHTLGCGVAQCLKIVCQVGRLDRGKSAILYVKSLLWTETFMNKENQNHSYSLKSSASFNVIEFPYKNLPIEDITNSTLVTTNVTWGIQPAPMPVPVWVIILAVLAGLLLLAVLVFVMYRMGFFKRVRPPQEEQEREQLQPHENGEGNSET
Chain of αvβ3 integrins (P05106 27-788): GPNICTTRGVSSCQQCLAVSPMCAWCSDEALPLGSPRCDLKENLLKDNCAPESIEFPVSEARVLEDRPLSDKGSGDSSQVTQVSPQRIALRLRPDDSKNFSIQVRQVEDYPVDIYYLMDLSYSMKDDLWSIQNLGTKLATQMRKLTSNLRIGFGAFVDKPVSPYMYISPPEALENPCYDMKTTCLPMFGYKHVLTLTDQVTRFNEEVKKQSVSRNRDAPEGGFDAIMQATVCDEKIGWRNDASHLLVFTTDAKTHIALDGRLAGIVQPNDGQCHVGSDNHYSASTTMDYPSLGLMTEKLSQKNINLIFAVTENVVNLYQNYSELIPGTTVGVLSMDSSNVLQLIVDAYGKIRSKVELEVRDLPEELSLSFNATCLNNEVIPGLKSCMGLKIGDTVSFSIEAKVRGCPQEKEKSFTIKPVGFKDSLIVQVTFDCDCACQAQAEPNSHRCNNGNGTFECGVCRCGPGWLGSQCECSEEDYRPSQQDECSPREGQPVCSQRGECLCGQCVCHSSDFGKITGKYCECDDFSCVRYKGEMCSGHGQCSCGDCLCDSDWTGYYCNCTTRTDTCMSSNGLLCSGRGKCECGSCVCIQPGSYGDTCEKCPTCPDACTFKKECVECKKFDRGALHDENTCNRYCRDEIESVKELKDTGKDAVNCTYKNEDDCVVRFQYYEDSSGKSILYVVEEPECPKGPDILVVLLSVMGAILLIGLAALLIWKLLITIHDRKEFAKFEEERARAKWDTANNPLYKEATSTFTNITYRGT

CCCCCCCCCCCCCCCCCC[Si](C)(C)Cl [octadecyldimethylchlorosilane]
Surface hydrolysis of coated powders (in words) [1]: almost total surface hydrolysis

CCCCCCCCCCCCCCCCCCP(=O)(O)O [octadecylphosphonic acid]
Bound material lost from the surface of TiO2 ([1]; neutral pH): 16%
Bound material lost from the surface of ZrO2 ([1]; neutral pH): 5%
Persistence of phosphonic acid layer after washing and peel test, aluminum native oxide [2]: survives washing, but not peel testing
Persistence of phosphonic acid layer after washing and peel test, iron native oxide [2]: survives both washing and peel testing
Persistence of phosphonic acid layer after washing, titanium native oxide [2]: readily removed by washing with the deposition solvent

(cyclo)-1,6 acetyl-CRGDF-penicillamine-NH2
Stability relative to linear RGDF [3]: 30 times

Arg-Gly-Asp-Cys (RGDC; printed: Arg-Gly-Asp-Cys) [cysteine modified fibronectin cell attachment peptide]
RGDC loadings on SAMs of 11-hydroxyphosphonate on Ti [4]: ~0.52 nmol/cm^2

N-(5-dimethylamino-1-naphthyl-sulfonyl)-RGDC [DANSYL-RGDC]
Surface loading of DANSYL-RGDC stable at about pH 7.5 [5]: about 0.58 nmol/cm^2

cyclic (RGDFV-)
Specificity towards αvβ3 integrins relative to linear GRGDSPK (αvβ3 integrins): over 100 times

Reference: patent publication US8993117B2, “Devices with multiple surface functionality” (The Trustees of Princeton University, priority 2005, dated 2015)
